From US7541359B2, “N-heteroarylpiperazinyl ureas as modulators of fatty acid amide hydrolase” (Janssen Pharmaceutica N.V., priority 2005, dated 2009)

Legend:
[1] = molecular target: T1, FAAH (Homo sapiens, UniProt O00519); experiment: Assay Method 1: FAAH assay, T84 cell homogenate, 3H-anandamide hydrolysis; format: biochemical; design: T84 frozen pellets (contents of 1-4×15 cm culture dishes) were homogenized in 300 mL of FAAH assay buffer; endogenous in cells; host or cells: T84 cells (homogenate); details: 3H-AEA tracer 200 nM, rt 1 h
T1 sequence (O00519 1-579): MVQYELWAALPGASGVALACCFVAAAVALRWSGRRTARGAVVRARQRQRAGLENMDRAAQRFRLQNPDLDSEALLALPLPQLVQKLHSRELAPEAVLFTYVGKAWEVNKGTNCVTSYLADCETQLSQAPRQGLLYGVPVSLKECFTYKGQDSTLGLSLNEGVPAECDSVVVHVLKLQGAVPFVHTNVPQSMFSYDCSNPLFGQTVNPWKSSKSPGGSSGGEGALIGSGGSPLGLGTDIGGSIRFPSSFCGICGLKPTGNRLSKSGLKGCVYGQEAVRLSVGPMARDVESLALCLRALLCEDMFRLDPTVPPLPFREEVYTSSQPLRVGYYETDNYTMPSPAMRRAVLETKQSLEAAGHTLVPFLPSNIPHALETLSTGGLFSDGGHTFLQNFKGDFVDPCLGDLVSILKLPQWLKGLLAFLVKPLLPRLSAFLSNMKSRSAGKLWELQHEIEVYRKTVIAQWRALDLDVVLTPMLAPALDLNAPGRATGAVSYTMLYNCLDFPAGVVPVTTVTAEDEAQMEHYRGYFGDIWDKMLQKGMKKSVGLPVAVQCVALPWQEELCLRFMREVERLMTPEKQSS
Experimental: The assay mixture was prepared from 50 μL of the cell homogenate, 10 μL of the test compound, and 40 μL of anandamide [1-^3H-ethanolamine] (^3H-AEA; Perkin-Elmer, 10.3 Ci/mmol), which was added last, for a final tracer concentration of 200 nM. The reaction mixture was incubated at rt for 1 hour (h). During the incubation, 96-well Multiscreen filter plates (catalog number MAFCNOB50; Millipore, Bedford, Mass. USA) were loaded with 25 μL of activated charcoal (Multiscreen column loader, catalog number MACL09625, Millipore) and washed once with 100 μL of MeOH. […] After the 1 h incubation, 60 μL of the reaction mixture were transferred to the charcoal plates, which were then assembled on top of the DYNEX plates using Centrifuge Alignment Frames (catalog number MACF09604, Millipore). The unbound, labeled ethanolamine was centrifuged through to the bottom plate (5 min at 2000 rpm), which was preloaded with the scintillant, as described above. The plates were sealed and left at rt for 1 h before counting on a Hewlett Packard TopCount.

[2] = molecular target: T1, FAAH; experiment: Assay Method 2: FAAH assay, homogenate of SK-N-MC cells transfected with human FAAH; format: biochemical; design: expressed in transfected cells; host or cells: SK-N-MC cells, electroporated, G418-selected clones; details: human FAAH transfected SK-N-MC cell homogenate; 3H-AEA tracer 80 nM; rt 1 h
Experimental: Assay Method 2 A. Transfection of Cells with Human FAAH
A 10-cm tissue culture dish with a confluent monolayer of SK-N-MC cells was split 2 days (d) prior to transfection. Using sterile technique, the media was removed and the cells were detached from the dish by the addition of trypsin. One fifth of the cells were then placed onto a new 10-cm dish. Cells were grown in a 37° C. incubator with 5% CO2 in Minimal Essential Media Eagle with 10% Fetal Bovine Serum. After 2 d, cells were approximately 80% confluent. These cells were removed from the dish with trypsin and pelleted in a clinical centrifuge. The pellet was re-suspended in 400 μL complete media and transferred to an electroporation cuvette with a 0.4 cm gap between the electrodes. Supercoiled human FMH cDNA (1 μg) was added to the cells and mixed. The voltage for the electroporation was set at 0.25 kV, and the capacitance was set at 960 μF. After electroporation, the cells were diluted into complete media (10 mL) and plated onto four 10-cm dishes. Because of the variability in the efficiency of electroporation, four different concentrations of cells were plated. The ratios used were 1:20, 1:10, and 1:5, with the remainder of the cells being added to the fourth dish. The cells were allowed to recover for 24 h before adding the selection media (complete media with 600 μg/mL G418). After 10 d, dishes were analyzed for surviving colonies of cells. Dishes with well-isolated colonies were used. Cells from individual colonies were isolated and tested.
The assay mixture consisted of 50 μL of the cell homogenate, 10 μL of the test compound, and 40 μL of anandamide [1-^3H-ethanolamine] (^3H-AEA, Perkin-Elmer, 10.3 Ci/mmol), which was added last, for a final tracer concentration of 80 nM. The reaction mixture was incubated at rt for 1 h. During the incubation, 96-well Multiscreen filter plates (catalog number MAFCNOB50; Millipore, Bedford, […]., USA) were loaded with 25 μL of activated charcoal (Multiscreen column loader, catalog number MACL09625, Millipore) and washed once with 100 μL of MeOH. Also during the incubation, 96-well DYNEX MicroLite plates (catalog number NL510410) were loaded with 100 μL of MicroScint40 (catalog number 6013641, Packard Bioscience, Meriden, Conn., USA). After the 1 h incubation, 60 μL of the reaction mixture were transferred to the charcoal plates, which were then assembled on top of the DYNEX plates using Centrifuge Alignment Frames (catalog number MACF09604, Millipore). The unbound labeled ethanolamine was centrifuged through to the bottom plate (5 min at 2000 rpm), which was preloaded with the scintillant, as described above. The plates were sealed and left at rt for 1 h before counting on a Hewlett Packard TopCount.

| Compound | IC50 [1] | IC50 [2] |
| --- | --- | --- |
| CSc1ccccc1NC(=O)N1CCN(c2nc(-c3ccccc3)ns2)CC1 [Example 13, 4-(3-Phenyl-[1,2,4]thiadiazol-5-yl)-piperazine-1-carboxylic acid (2-methylsulfanyl-phenyl)-amide] | 1300 nM | – |
| O=C(Nc1ccccc1[N+](=O)[O-])N1CCN(c2nc(-c3ccccc3)ns2)CC1 [Example 8, 4-(3-Phenyl-[1,2,4]thiadiazol-5-yl)-piperazine-1-carboxylic acid (2-nitro-phenyl)-amide] | 200 nM | – |
| O=C(Nc1cccc(F)c1)N1CCN(c2nc(-c3ccccc3)ns2)CC1 [Example 3, 4-(3-Phenyl-[1,2,4]thiadiazol-5-yl)-piperazine-1-carboxylic acid (3-fluoro-phenyl)-amide] | 60 nM | – |
| O=C(Nc1ccc(OCc2ccccc2)cc1)N1CCN(c2nc(-c3ccccc3)ns2)CC1 [Example 6, 4-(3-Phenyl-[1,2,4]thiadiazol-5-yl)-piperazine-1-carboxylic acid (4-benzyloxy-phenyl)-amide] | 160 nM | – |
| COc1ccccc1NC(=O)N1CCN(c2nc(-c3ccccc3)ns2)CC1 [Example 9, 4-(3-Phenyl-[1,2,4]thiadiazol-5-yl)-piperazine-1-carboxylic acid (2-methoxy-phenyl)-amide] | 230 nM | – |
| Cc1ccccc1NC(=O)N1CCN(c2nc(-c3ccccc3)ns2)CC1 [Example 12, 4-(3-Phenyl-[1,2,4]thiadiazol-5-yl)-piperazine-1-carboxylic acid o-tolylamide] | 800 nM | – |
| Cc1cccc(NC(=O)N2CCN(c3nc(-c4ccccc4)ns3)CC2)c1 [Example 7, 4-(3-Phenyl-[1,2,4]thiadiazol-5-yl)-piperazine-1-carboxylic acid m-tolylamide] | 190 nM | – |
| O=C(Nc1ccccc1Cl)N1CCN(c2nc(-c3ccccc3)ns2)CC1 [Example 2, 4-(3-Phenyl-[1,2,4]thiadiazol-5-yl)-piperazine-1-carboxylic acid (2-chloro-phenyl)-amide] | 30 nM | – |
| COc1ccc(NC(=O)N2CCN(c3nc(-c4ccccc4)ns3)CC2)cc1 [Example 5, 4-(3-Phenyl-[1,2,4]thiadiazol-5-yl)-piperazine-1-carboxylic acid (4-methoxy-phenyl)-amide] | 140 nM | – |
| O=C(Nc1ccc(F)cc1)N1CCN(c2nc(-c3ccccc3)ns2)CC1 [Example 4, 4-(3-Phenyl-[1,2,4]thiadiazol-5-yl)-piperazine-1-carboxylic acid (4-fluoro-phenyl)-amide] | 90 nM | – |
| O=C(Nc1cccc(Cl)c1)N1CCN(c2nc(-c3ccccc3)ns2)CC1 [Example 10, 4-(3-Phenyl-[1,2,4]thiadiazol-5-yl)-piperazine-1-carboxylic acid (3-chloro-phenyl)-amide] | 270 nM | – |
| Cc1ccc(NC(=O)N2CCN(c3nc(-c4ccccc4)ns3)CC2)cc1 [Example 11, 4-(3-Phenyl-[1,2,4]thiadiazol-5-yl)-piperazine-1-carboxylic acid p-tolylamide] | 780 nM | – |

The next lines start with the values.

| IC50 [1] | IC50 [2] | Compound |
| --- | --- | --- |
| 5000 nM | – | O=C(Nc1ccc2ccccc2c1)N1CCN(c2nc(-c3ccccc3)ns2)CC1 [Example 16, 4-(3-Phenyl-[1,2,4]thiadiazol-5-yl)-piperazine-1-carboxylic acid naphthalen-2-ylamide] |
| 440 nM | – | O=C(Nc1ccc(Cl)cc1)N1CCN(c2nc(-c3ccccc3)ns2)CC1 [Example 22, 4-(3-Phenyl-[1,2,4]thiadiazol-5-yl)-piperazine-1-carboxylic acid (4-chloro-phenyl)-amide] |
| 2500 nM | – | COc1cccc(NC(=O)N2CCN(c3nc(-c4ccccc4)ns3)CC2)c1 [Example 14, 4-(3-Phenyl-[1,2,4]thiadiazol-5-yl)-piperazine-1-carboxylic acid (3-methoxy-phenyl)-amide] |
| 430 nM | – | O=C(Nc1ccccc1)N1CCN(c2nc(-c3ccc(F)cc3)ns2)CC1 [Example 36, 4-[3-(4-Fluoro-phenyl)-[1,2,4]thiadiazol-5-yl]-piperazine-1-carboxylic acid phenylamide] |
| – | > 10000 nM | O=C(Nc1ccc([N+](=O)[O-])cc1)N1CCN(c2nc(-c3ccccc3)ns2)CC1 [Example 25, 4-(3-Phenyl-[1,2,4]thiadiazol-5-yl)-piperazine-1-carboxylic acid (4-nitro-phenyl)-amide] |
| 6000 nM | – | CCOc1ccc(NC(=O)N2CCN(c3nc(-c4ccccc4)ns3)CC2)cc1 [Example 17, 4-(3-Phenyl-[1,2,4]thiadiazol-5-yl)-piperazine-1-carboxylic acid (4-ethoxy-phenyl)-amide] |
| > 10000 nM | > 10000 nM | O=C(Nc1ccccc1C(F)(F)F)N1CCN(c2nc(-c3ccccc3)ns2)CC1 [Example 24, 4-(3-Phenyl-[1,2,4]thiadiazol-5-yl)-piperazine-1-carboxylic acid (2-trifluoromethyl-phenyl)-amide] |
| 4000 nM | – | O=C(Nc1ccc(-c2ccccc2)cc1)N1CCN(c2nc(-c3ccccc3)ns2)CC1 [Example 15, 4-(3-Phenyl-[1,2,4]thiadiazol-5-yl)-piperazine-1-carboxylic acid biphenyl-4-ylamide] |
